Starred links: 1 amine or outer side, 2 acyl side, 3 side chain; linkers in the order of their positions; H or OH if unused. Non-standard residues stand in square brackets, D forms with d. Residues, ends and D or L forms follow the SMILES beside them. Groups on a side chain read outwards from the residue. *: point of attachment. C18 diacid = O=C(O)CCCCCCCCCCCCCCCCC(=O)*; γGlu = O=C(O)[C@H](CCC(=O)[*:2])N[*:1]; αMeF = C[C@](N)(Cc1ccccc1)C(=O)O; AEEA = NCCOCCOCC(=O)O; Aib = CC(C)(N)C(=O)O
Each compound was assayed against T1, human GLP-1 receptor (hGLP-1R) (Homo sapiens, UniProt P43220) (assay: cAMP production (HTRF) in CHO cells expressing human GLP-1 receptor). Conditions: Table 8; % GLP-1R activity relative to GLP-1 / % GlucR activity relative to glucagon.
T1 construct: expressed in transfected cells; host or cells: CHO
Format: cell-based
Experimental: Cells were re-suspended in assay buffer at a batch-dependent optimized concentration (typically hGLP-1R cells at 1×10^5 cells/mL, hGCGR cells at 2×10^5 cells/mL).
Cells were added to the assay plate using a multidrop dispenser and incubated at room temperature for 30 minutes before measuring the cAMP level using a cAMP dynamic 2 homogeneous time resolved Fluorescence (HTRF) kit (Cisbio Bioassays #62AM4PEJ) following the two-step protocol as per manufacturer's recommendations. In brief, anti-cAMP cryptate (donor fluorophore) and cAMP-d2 (acceptor fluorophore) were made up separately by diluting each 1 in 20 in conjugate and lysis buffer provided in the kit. Anti-cAMP cryptate was added to all wells of the assay plate, followed by cAMP-d2 added to all wells except non-specific binding (NSB) wells (to which conjugate and lysis buffer was added).
Data was transformed to % Delta F as described in the manufacturer's guidelines and analyzed by 4-parameter logistic fit to determine EC50 values.

T1 sequence (P43220 24-463): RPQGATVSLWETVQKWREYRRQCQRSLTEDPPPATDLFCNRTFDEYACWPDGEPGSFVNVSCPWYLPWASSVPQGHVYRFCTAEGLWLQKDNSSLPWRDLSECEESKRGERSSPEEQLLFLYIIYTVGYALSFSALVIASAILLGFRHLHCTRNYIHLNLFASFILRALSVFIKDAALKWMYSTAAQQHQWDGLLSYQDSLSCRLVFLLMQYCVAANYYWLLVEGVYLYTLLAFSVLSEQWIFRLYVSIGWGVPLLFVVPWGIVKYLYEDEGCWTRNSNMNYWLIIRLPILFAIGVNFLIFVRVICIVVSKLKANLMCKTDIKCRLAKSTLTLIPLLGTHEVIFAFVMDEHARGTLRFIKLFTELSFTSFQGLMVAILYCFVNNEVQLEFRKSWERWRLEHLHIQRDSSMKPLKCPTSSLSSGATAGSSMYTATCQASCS

Structure (SMILES) | % Relative Potency Ratio
CC[C@H](C)[C@H](NC(=O)C(C)(C)NC(=O)[C@H](CCCCNC(=O)COCCOCCNC(=O)COCCOCCNC(=O)CC[C@H](NC(=O)CC[C@H](NC(=O)CCCCCCCCCCCCCCCCC(=O)O)C(=O)O)C(=O)O)NC(=O)[C@@H](NC(=O)[C@](C)(Cc1ccccc1)NC(=O)[C@H](CC(=O)O)NC(=O)[C@H](CCC(N)=O)NC(=O)[C@H](C)NC(=O)[C@H](C)NC(=O)[C@H](CCCNC(=N)N)NC(=O)[C@H](CO)NC(=O)[C@H](CC(=O)O)NC(=O)[C@H](CC(C)C)NC(=O)[C@](C)(Cc1ccccc1)NC(=O)[C@H](CCCCN)NC(=O)[C@H](CO)NC(=O)[C@@H](NC(=O)[C@H](CC(=O)O)NC(=O)[C@H](CO)NC(=O)[C@@H](NC(=O)[C@](C)(Cc1ccccc1)NC(=O)[C@H](CO)NC(=O)CNC(=O)[C@H](Cc1c[nH]cn1)NC(=O)C(C)(C)NC(=O)[C@@H](N)Cc1c[nH]cn1)[C@@H](C)O)C(C)C)C(C)C)C(=O)N[C@@H](C)C(=O)N[C@@H](CC(N)=O)C(=O)N[C@H](C(=O)NCC(=O)NCC(N)=O)[C@@H](C)O [Peptide 373] (H-H[Aib]HGS[αMeF]TSDVSK[αMeF]LDSRAAQD[αMeF]VK([AEEA-AEEA-γGlu-γGlu-C18 diacid])[Aib]IANTGG-NH2; N-terminus assumed) | 7.2
CC[C@H](C)[C@H](NC(=O)[C@H](Cc1c[nH]c2ccccc12)NC(=O)[C@H](CCCCNC(=O)COCCOCCNC(=O)COCCOCCNC(=O)CC[C@H](NC(=O)CC[C@H](NC(=O)CCCCCCCCCCCCCCCCC(=O)O)C(=O)O)C(=O)O)NC(=O)[C@@H](NC(=O)[C@](C)(Cc1ccccc1)NC(=O)[C@H](CC(=O)O)NC(=O)[C@H](CCC(N)=O)NC(=O)[C@H](C)NC(=O)[C@H](C)NC(=O)[C@H](CCCNC(=N)N)NC(=O)[C@H](CO)NC(=O)[C@H](CC(=O)O)NC(=O)[C@H](CC(C)C)NC(=O)[C@](C)(Cc1ccccc1)NC(=O)[C@H](CCCCN)NC(=O)[C@H](CO)NC(=O)[C@@H](NC(=O)[C@H](CC(=O)O)NC(=O)[C@H](CO)NC(=O)[C@@H](NC(=O)[C@](C)(Cc1ccccc1)NC(=O)[C@H](CO)NC(=O)CNC(=O)[C@H](Cc1c[nH]cn1)NC(=O)C(C)(C)NC(=O)[C@@H](N)Cc1c[nH]cn1)[C@@H](C)O)C(C)C)C(C)C)C(=O)N[C@@H](C)C(=O)N[C@@H](CC(N)=O)C(=O)N[C@H](C(N)=O)[C@@H](C)O [Peptide 371] (H-H[Aib]HGS[αMeF]TSDVSK[αMeF]LDSRAAQD[αMeF]VK([AEEA-AEEA-γGlu-γGlu-C18 diacid])WIANT-NH2; N-terminus assumed) | 0.9
CC[C@H](C)[C@H](NC(=O)[C@H](Cc1c[nH]c2ccccc12)NC(=O)[C@H](CCCCNC(=O)COCCOCCNC(=O)COCCOCCNC(=O)CC[C@H](NC(=O)CCCCCCCCCCCCCCCCC(=O)O)C(=O)O)NC(=O)[C@@H](NC(=O)[C@H](Cc1ccccc1)NC(=O)[C@H](CC(=O)O)NC(=O)[C@H](CCC(N)=O)NC(=O)[C@H](C)NC(=O)[C@H](C)NC(=O)[C@H](CCC(N)=O)NC(=O)[C@H](CO)NC(=O)[C@H](CC(=O)O)NC(=O)[C@H](CC(C)C)NC(=O)[C@](C)(Cc1ccccc1)NC(=O)[C@H](CCCCN)NC(=O)[C@H](CO)NC(=O)[C@@H](NC(=O)[C@H](CC(=O)O)NC(=O)[C@H](CO)NC(=O)[C@@H](NC(=O)[C@](C)(Cc1ccccc1)NC(=O)[C@H](CO)NC(=O)CNC(=O)[C@@H](NC(=O)C(C)(C)NC(=O)[C@@H](N)Cc1c[nH]cn1)[C@@H](C)CC)[C@@H](C)O)C(C)C)C(C)C)C(=O)N[C@@H](C)C(=O)N[C@@H](CC(N)=O)C(=O)N[C@H](C(N)=O)[C@@H](C)O [Peptide 358] (H-H[Aib]IGS[αMeF]TSDVSK[αMeF]LDSQAAQDFVK([AEEA-AEEA-γGlu-C18 diacid])WIANT-NH2; N-terminus assumed) | 424.1
CC[C@H](C)[C@H](NC(=O)[C@H](Cc1c[nH]c2ccccc12)NC(=O)[C@H](CCCCNC(=O)COCCOCCNC(=O)COCCOCCNC(=O)CC[C@H](NC(=O)CCCCCCCCCCCCCCCCC(=O)O)C(=O)O)NC(=O)[C@@H](NC(=O)[C@H](Cc1ccccc1)NC(=O)[C@H](CC(=O)O)NC(=O)[C@H](CCC(N)=O)NC(=O)[C@H](C)NC(=O)[C@H](C)NC(=O)[C@H](CCC(N)=O)NC(=O)[C@H](CO)NC(=O)[C@H](CC(=O)O)NC(=O)[C@H](CC(C)C)NC(=O)[C@](C)(Cc1ccccc1)NC(=O)[C@H](CCCCN)NC(=O)[C@H](CO)NC(=O)[C@@H](NC(=O)[C@H](CC(=O)O)NC(=O)[C@H](CO)NC(=O)[C@@H](NC(=O)[C@](C)(Cc1ccccc1)NC(=O)[C@H](CO)NC(=O)CNC(=O)[C@H](Cc1c[nH]cn1)NC(=O)C(C)(C)NC(=O)[C@@H](N)Cc1c[nH]cn1)[C@@H](C)O)C(C)C)C(C)C)C(=O)N[C@@H](C)C(=O)N[C@@H](CC(N)=O)C(=O)N[C@H](C(=O)NCC(=O)NCC(N)=O)[C@@H](C)O [Peptide 350] (H-H[Aib]HGS[αMeF]TSDVSK[αMeF]LDSQAAQDFVK([AEEA-AEEA-γGlu-C18 diacid])WIANTGG-NH2; N-terminus assumed) | 8.6
CC[C@H](C)[C@H](NC(=O)[C@H](CO)NC(=O)[C@H](CCCCNC(=O)COCCOCCNC(=O)COCCOCCNC(=O)CC[C@H](NC(=O)CC[C@H](NC(=O)CCCCCCCCCCCCCCCCC(=O)O)C(=O)O)C(=O)O)NC(=O)[C@@H](NC(=O)[C@](C)(Cc1ccccc1)NC(=O)[C@H](CC(=O)O)NC(=O)[C@H](CCC(N)=O)NC(=O)[C@H](C)NC(=O)[C@H](C)NC(=O)[C@H](CCCNC(=N)N)NC(=O)[C@H](CO)NC(=O)[C@H](CC(=O)O)NC(=O)[C@H](CC(C)C)NC(=O)[C@](C)(Cc1ccccc1)NC(=O)[C@H](CCCCN)NC(=O)[C@H](CO)NC(=O)[C@@H](NC(=O)[C@H](CC(=O)O)NC(=O)[C@H](CO)NC(=O)[C@@H](NC(=O)[C@](C)(Cc1ccccc1)NC(=O)[C@H](CO)NC(=O)CNC(=O)[C@H](Cc1c[nH]cn1)NC(=O)C(C)(C)NC(=O)[C@@H](N)Cc1c[nH]cn1)[C@@H](C)O)C(C)C)C(C)C)C(=O)N[C@@H](C)C(=O)N[C@@H](CC(N)=O)C(=O)N[C@H](C(N)=O)[C@@H](C)O [Peptide 378] (H-H[Aib]HGS[αMeF]TSDVSK[αMeF]LDSRAAQD[αMeF]VK([AEEA-AEEA-γGlu-γGlu-C18 diacid])SIANT-NH2; N-terminus assumed) | 2.0
CC[C@H](C)[C@H](NC(=O)[C@H](Cc1c[nH]c2ccccc12)NC(=O)[C@H](CCCCNC(=O)COCCOCCNC(=O)COCCOCCNC(=O)CC[C@H](NC(=O)CCCCCCCCCCCCCCCCC(=O)O)C(=O)O)NC(=O)[C@@H](NC(=O)[C@H](Cc1ccccc1)NC(=O)[C@H](CC(=O)O)NC(=O)[C@H](CCC(N)=O)NC(=O)[C@H](C)NC(=O)[C@H](C)NC(=O)[C@H](CCC(N)=O)NC(=O)[C@H](CO)NC(=O)[C@H](CC(=O)O)NC(=O)[C@H](CC(C)C)NC(=O)[C@](C)(Cc1ccccc1)NC(=O)[C@H](CCCCN)NC(=O)[C@H](CO)NC(=O)[C@@H](NC(=O)[C@H](CC(=O)O)NC(=O)[C@H](CO)NC(=O)[C@@H](NC(=O)[C@](C)(Cc1ccccc1)NC(=O)[C@H](CO)NC(=O)CNC(=O)[C@H](CCC(N)=O)NC(=O)C(C)(C)NC(=O)[C@@H](N)Cc1c[nH]cn1)[C@@H](C)O)C(C)C)C(C)C)C(=O)N[C@@H](C)C(=O)N[C@@H](CC(N)=O)C(=O)N[C@H](C(N)=O)[C@@H](C)O [Peptide 348] (H-H[Aib]QGS[αMeF]TSDVSK[αMeF]LDSQAAQDFVK([AEEA-AEEA-γGlu-C18 diacid])WIANT-NH2; N-terminus assumed) | 116.0
CC[C@H](C)[C@H](NC(=O)[C@H](Cc1c[nH]c2ccccc12)NC(=O)[C@H](CCCCNC(=O)COCCOCCNC(=O)COCCOCCNC(=O)CC[C@H](NC(=O)CC[C@H](NC(=O)CCCCCCCCCCCCCCCCC(=O)O)C(=O)O)C(=O)O)NC(=O)[C@@H](NC(=O)[C@H](Cc1ccccc1)NC(=O)[C@H](CC(=O)O)NC(=O)[C@H](CCC(N)=O)NC(=O)[C@H](C)NC(=O)[C@H](C)NC(=O)[C@H](CCCNC(=N)N)NC(=O)[C@H](CO)NC(=O)[C@H](CC(=O)O)NC(=O)[C@H](CC(C)C)NC(=O)[C@](C)(Cc1ccccc1)NC(=O)[C@H](CCCCN)NC(=O)[C@H](CO)NC(=O)[C@@H](NC(=O)[C@H](CC(=O)O)NC(=O)[C@H](CO)NC(=O)[C@@H](NC(=O)[C@](C)(Cc1ccccc1)NC(=O)[C@H](CO)NC(=O)CNC(=O)[C@H](Cc1c[nH]cn1)NC(=O)C(C)(C)NC(=O)[C@@H](N)Cc1c[nH]cn1)[C@@H](C)O)C(C)C)C(C)C)C(=O)N[C@@H](C)C(=O)N[C@@H](CC(N)=O)C(=O)N[C@H](C(=O)NCC(N)=O)[C@@H](C)O [Peptide 363] (H-H[Aib]HGS[αMeF]TSDVSK[αMeF]LDSRAAQDFVK([AEEA-AEEA-γGlu-γGlu-C18 diacid])WIANTG-NH2; N-terminus assumed) | 5.1
CC[C@H](C)[C@H](NC(=O)C(C)(C)NC(=O)[C@H](CCCCNC(=O)COCCOCCNC(=O)COCCOCCNC(=O)CC[C@H](NC(=O)CCCCCCCCCCCCCCCCC(=O)O)C(=O)O)NC(=O)[C@@H](NC(=O)[C@](C)(Cc1ccccc1)NC(=O)[C@H](CC(=O)O)NC(=O)[C@H](CCC(N)=O)NC(=O)[C@H](C)NC(=O)[C@H](C)NC(=O)[C@H](CCC(N)=O)NC(=O)[C@H](CO)NC(=O)[C@H](CC(=O)O)NC(=O)[C@H](CC(C)C)NC(=O)[C@](C)(Cc1ccccc1)NC(=O)[C@H](CCCCN)NC(=O)[C@H](CO)NC(=O)[C@@H](NC(=O)[C@H](CC(=O)O)NC(=O)[C@H](CO)NC(=O)[C@@H](NC(=O)[C@](C)(Cc1ccccc1)NC(=O)[C@H](CO)NC(=O)CNC(=O)[C@H](Cc1c[nH]cn1)NC(=O)C(C)(C)NC(=O)[C@@H](N)Cc1c[nH]cn1)[C@@H](C)O)C(C)C)C(C)C)C(=O)N[C@@H](C)C(=O)N[C@@H](CC(N)=O)C(=O)N[C@H](C(N)=O)[C@@H](C)O [Peptide 383] (H-H[Aib]HGS[αMeF]TSDVSK[αMeF]LDSQAAQD[αMeF]VK([AEEA-AEEA-γGlu-C18 diacid])[Aib]IANT-NH2; N-terminus assumed) | 2.3
